# Reference: ChEMBL document CHEMBL1201862, “PubChem BioAssay data set” (2004)
# Active and inactive are the calls of the source.
# Experiments:
# HEK293 = assay: SAR Analysis of small molecule inhibitors of T-cell specific antigen receptor-induced NF-kB activation in a HEK-293T cell line using a luminescence assay - Set 2. [Related pubchem assays (depositor defined):AID435003, AID435012, AID489026]; assay type: functional, cell-based; details: Homo sapiens
# Exodeoxyribonuclease V = target: T1, Exodeoxyribonuclease V (Escherichia coli (strain K12), UniProt P04993+P07648+P08394); assay: RecBCD inhibition via phage-restricted bacterial growth – absorbance, V66 E. coli, mutant T4 phage, counter-screen for AddAB inhibitor project, dose response (AID 492957); assay type: functional, cell-based, Escherichia coli str. K-12 substr. MG1655
# T1 sequence (P04993 whole entry): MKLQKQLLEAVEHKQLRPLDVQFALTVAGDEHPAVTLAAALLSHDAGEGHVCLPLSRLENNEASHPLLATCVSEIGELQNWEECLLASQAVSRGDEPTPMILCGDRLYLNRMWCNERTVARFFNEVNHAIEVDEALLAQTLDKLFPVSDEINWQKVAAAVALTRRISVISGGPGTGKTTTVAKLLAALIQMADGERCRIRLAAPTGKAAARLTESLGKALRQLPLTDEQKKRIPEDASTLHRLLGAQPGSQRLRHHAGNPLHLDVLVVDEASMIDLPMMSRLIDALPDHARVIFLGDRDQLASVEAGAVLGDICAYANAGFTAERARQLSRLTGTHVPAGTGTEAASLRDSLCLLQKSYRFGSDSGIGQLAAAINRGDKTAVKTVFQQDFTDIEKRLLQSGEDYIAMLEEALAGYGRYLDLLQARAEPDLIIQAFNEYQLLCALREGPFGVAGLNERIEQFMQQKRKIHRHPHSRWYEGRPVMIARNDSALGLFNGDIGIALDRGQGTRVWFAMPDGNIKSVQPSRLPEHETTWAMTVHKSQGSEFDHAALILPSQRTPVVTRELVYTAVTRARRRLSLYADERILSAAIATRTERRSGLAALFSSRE
# T1 sequence (P07648 whole entry): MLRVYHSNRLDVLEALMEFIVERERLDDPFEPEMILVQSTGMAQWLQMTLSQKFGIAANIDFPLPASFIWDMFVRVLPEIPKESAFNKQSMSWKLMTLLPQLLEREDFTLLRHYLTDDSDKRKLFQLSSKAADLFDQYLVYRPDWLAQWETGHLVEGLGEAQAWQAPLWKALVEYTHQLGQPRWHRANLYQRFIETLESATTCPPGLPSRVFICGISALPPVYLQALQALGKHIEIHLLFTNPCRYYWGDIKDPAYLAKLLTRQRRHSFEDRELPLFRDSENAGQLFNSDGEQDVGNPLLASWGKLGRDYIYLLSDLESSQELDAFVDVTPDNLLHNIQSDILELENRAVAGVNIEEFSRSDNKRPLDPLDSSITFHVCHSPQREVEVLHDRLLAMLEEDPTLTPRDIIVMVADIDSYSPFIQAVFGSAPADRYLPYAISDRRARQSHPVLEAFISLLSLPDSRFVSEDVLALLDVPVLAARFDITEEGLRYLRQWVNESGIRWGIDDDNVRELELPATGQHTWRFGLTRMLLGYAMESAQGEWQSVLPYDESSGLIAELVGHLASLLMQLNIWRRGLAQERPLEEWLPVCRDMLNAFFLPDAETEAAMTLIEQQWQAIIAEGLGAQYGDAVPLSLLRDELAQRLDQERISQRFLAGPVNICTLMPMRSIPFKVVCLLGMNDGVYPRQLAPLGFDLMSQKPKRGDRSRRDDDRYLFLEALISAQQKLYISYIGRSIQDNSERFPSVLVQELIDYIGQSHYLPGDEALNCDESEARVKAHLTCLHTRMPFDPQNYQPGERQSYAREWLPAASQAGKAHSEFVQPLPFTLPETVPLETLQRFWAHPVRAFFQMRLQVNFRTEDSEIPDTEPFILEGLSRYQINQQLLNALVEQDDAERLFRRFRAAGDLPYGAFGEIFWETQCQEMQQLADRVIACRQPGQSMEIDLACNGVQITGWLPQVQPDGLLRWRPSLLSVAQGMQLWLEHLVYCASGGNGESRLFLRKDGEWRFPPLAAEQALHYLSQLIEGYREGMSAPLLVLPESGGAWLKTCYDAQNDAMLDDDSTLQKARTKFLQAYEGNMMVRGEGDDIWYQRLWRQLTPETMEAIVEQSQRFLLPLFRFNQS
# T1 sequence (P08394 whole entry): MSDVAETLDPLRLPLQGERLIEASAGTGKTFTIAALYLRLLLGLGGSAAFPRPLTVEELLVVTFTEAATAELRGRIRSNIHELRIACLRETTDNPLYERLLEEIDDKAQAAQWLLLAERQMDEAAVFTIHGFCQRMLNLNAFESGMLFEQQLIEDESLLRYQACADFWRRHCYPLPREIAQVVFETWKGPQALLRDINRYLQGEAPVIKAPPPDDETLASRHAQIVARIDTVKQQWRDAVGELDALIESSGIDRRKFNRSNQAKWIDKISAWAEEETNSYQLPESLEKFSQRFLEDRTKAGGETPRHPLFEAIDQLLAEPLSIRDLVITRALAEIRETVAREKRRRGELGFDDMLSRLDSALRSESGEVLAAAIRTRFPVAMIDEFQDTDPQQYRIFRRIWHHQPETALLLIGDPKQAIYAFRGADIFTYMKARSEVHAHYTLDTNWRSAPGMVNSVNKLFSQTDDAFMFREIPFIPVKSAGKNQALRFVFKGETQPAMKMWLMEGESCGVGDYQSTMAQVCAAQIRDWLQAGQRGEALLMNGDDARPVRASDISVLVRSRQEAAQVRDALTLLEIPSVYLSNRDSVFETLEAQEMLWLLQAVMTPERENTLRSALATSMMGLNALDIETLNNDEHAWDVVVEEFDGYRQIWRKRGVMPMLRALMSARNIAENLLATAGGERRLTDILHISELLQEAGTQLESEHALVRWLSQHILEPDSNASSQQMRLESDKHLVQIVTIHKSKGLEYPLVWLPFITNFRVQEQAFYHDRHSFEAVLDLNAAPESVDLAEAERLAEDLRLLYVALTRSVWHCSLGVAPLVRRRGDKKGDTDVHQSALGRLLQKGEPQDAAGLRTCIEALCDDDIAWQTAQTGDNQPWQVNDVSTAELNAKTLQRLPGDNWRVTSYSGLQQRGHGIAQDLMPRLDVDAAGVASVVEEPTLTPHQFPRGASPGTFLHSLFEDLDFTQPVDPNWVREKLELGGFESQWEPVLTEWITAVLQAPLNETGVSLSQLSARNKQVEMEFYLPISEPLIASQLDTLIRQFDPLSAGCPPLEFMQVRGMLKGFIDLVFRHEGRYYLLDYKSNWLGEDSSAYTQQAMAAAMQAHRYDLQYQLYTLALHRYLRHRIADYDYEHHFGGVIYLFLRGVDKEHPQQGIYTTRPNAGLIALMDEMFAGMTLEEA
# [1] = target: ATP-dependent molecular chaperone HSP82 (Candida albicans (strain WO-1) (Yeast), UniProt C4YTQ8); assay: steroid-induced GRE reporter decrease in yeast – S. cerevisiae, luminescence, Hsp90 inhibitor project, dose response (AID 2400); assay type: functional, cell-based;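 note: beta-galactosidase luminescence from glucocorticoid response element reporter as proxy for Hsp90 function; inhibitor potency where signal loss means Hsp90 inhibition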
# Chain of ATP-dependent molecular chaperone HSP82 (C4YTQ8 whole entry): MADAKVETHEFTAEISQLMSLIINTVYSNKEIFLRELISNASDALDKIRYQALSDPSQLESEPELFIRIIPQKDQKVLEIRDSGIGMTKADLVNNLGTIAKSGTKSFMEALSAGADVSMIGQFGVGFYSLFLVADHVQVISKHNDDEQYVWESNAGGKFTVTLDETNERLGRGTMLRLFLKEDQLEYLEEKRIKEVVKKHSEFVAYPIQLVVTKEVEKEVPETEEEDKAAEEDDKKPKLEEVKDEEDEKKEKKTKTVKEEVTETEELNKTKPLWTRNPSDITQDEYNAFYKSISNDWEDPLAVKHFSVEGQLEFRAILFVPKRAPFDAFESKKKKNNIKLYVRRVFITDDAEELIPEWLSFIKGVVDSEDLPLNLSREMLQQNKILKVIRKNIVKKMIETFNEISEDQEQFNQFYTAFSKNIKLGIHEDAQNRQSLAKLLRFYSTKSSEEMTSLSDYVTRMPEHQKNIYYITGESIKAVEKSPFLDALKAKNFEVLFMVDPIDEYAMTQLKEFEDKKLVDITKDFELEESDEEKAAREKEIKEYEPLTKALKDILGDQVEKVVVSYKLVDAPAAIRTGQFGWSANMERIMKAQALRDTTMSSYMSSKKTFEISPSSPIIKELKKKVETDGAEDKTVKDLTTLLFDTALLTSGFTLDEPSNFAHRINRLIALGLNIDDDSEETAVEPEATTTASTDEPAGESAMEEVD
# BJ = assay: BJ-TERT fibroblast viability loss – cell-based, RAS-independent, luminescence, dose response (AID 1933); assay type: functional; details: Homo sapiens
smiles,measurement,setting,value
CCCCC(=O)NC(c1ccc(N(C)C)cc1)c1ccc2cccnc2c1O (centres undefined),IC50,HEK293,2.23 µM (active)
same,IC50,Exodeoxyribonuclease V,> 119 µM (inactive)
same,EC50,[1],> 160 µM (inactive)
same,EC50,BJ,1.05 µM (active)
